Experimental data taken from patent US11285125B2, “Oxidative retinal diseases” (priority 2011, dated 2022).
Like-named read-outs stand apart in the source and are kept apart here.

Tests used:
[1] = system: coq null mutants (Q-less yeast); details: cited from earlier work; for sensitivity of Q-less yeast to fatty acid treatment: compared with wild-type parental strain
[2] = system: coq null mutants (Q-less yeast); details: for viability of coq null mutants after fatty acid treatment: 200 μM fatty acid, plate dilution assay; for viability of cells by quantitative colony counting: colony counting at 1, 2 and 4 h
Experimental: Yeast coq3, coq7 and coq9 null mutants were prepared in the W303 yeast genetic background (WT). […] Cells were washed twice with sterile water and resuspended in phosphate buffer (0.10 M sodium phosphate, pH 6.2, 0.2% dextrose) to an OD600 nm=0.2. Samples were removed and 1:5 serial dilutions starting at 0.20 OD/ml were plated on YPD plate medium, to provide a zero time untreated control (shown in top left panel). The designated fatty acids were added to 200 μM final concentration to 20 ml of yeast in phosphate buffer. At 2 h, 4 h, and 16 h samples were removed, 1:5 serial dilutions prepared, and spotted onto YPD plate medium. Pictures were taken after 2 days of growth at 30° C. This panel is representative of two independent assays, performed on different days.
The fatty acid sensitive assay was performed as described in FIG. 6-1, except that 100 μl aliquots were removed at 1, 2, and 4 h and, following dilution, spread onto YPD plates. Pictures were taken after 2 to 2.5 days, and the number of colonies counted. Yeast strains include Wild type (circles), atp2 (triangles), or coq3 (squares); Fatty acid treatments include oleic C18:1 (solid line), linolenic, C18:3, n-3 (dashed line) or 11,11,14,14-D4-linolenic, C18:3, n-3, (dotted line).
A plate dilution assay can be used to assess PUFA sensitivity. This assay can be performed by spotting serial five-fold dilutions of aliquots onto YPD plate media (FIG. 3). The sensitivity of the different strains can be observed by visual inspection of the density of cells in each spot.

[3] = Kinetics of O2 consumption during non-enzymatic chain oxidation in chlorobenzene initiated by AMVN; format: physicochemical; details: for rate of oxidation, ROX: 0.71 M in chlorobenzene, 40 mM AMVN, 37° C.
Experimental: FIG. 7. Kinetics of O2 consumption accompanied the oxidation of 0.71 M LA (plots 1 and 2) and 0.71 M D2-LA (plot 3) in chlorobenzene initiated by 40 mM AMVN at 37° C. Plot 2-0.23 mM HPMC was added to 0.71 M LA.
The kinetics of oxygen consumption during the oxidation of LA and D2-LA was studied with a glass capillary microvolumeter (FIG. 7). The rate of oxidation, ROX, was measured as a slope of [O2] traces. The rate of initiation, RIN, was determined by the inhibitor method with HPMC (“6-hydroxy-2,2,5,7,8-pentamethylbenzochroman”) as a reference inhibitor. RIN was calculated from the induction period of inhibited oxidation, tIND: RIN=2·[HPMC]/tIND. […] When the process was inhibited by 0.23 mM chain-breaking antioxidant HPMC, the duration of the induction period, tIND, was about 48 min, with the RIN value of around 0.16×10^−6 M/s. […] The latter precludes a direct determination of RIN. […] An estimated kinetic isotope effect (“KIE”), from comparison of ROX for LA and D2-LA, was around 6.1×10^−6/0.18×10^−6≈35. A similar KIE was determined during the oxidation of LA and 11,11-d2-LA in Triton X-100 aqueous micelles (data not shown). For comparative purposes, the theoretical KIE is 6.9 at 25° C. See Carpenter, “Determination of Organic Reaction Mechanisms” (John Wiley & Sons, 1984), p. 89.

wild-type yeast (W303) = details: four hour treatment, strain W303-1B background; cited from earlier work
Wild-type yeast cells = experiment: Copper-stress lipid peroxidation assay (C11-Bodipy 581/591 fluorescence); format: cell-based, S. cerevisiae; details: 200 μM fatty acid 2 hours, then 50 μM CuSO4 60 min
Experimental: Wild-type yeast cells were treated as described above except the yeast were treated with 200 μM of the designated fatty acid for 2 hours, washed with sterile water, and were either not treated (triangles) or treated with 50 μM CuSO4 (squares) at room temperature. After 60 min of copper treatment cells were treated with 8 μM C11-Bodipy 581/591 for 30 min at room temperature. Four 100 μl aliquots were plated in a 96-well plate and the fluorescence was measured.

[4] = Rate of oxidation of mixtures of LA and D2-LA in chlorobenzene; format: physicochemical
Experimental: FIG. 8. Dependence of the rate of oxidation of the mixture of LA and D2-LA in chlorobenzene solution on mixture composition. Conditions: [LA]+[11,11-d2-LA]=0.775 M; [AMVN]=0.0217 M; 37° C. RIN=(1.10±0.08)×10^−7 M/sec.
To simulate the likely in vivo conditions, the kinetics of the oxidation of the mixtures of D2-LA and LA were studied (FIG. 8). In the experiments, the concentration of LA plus 11,11-d2-LA was 0.775 M; the concentration of AMVN was 0.0217 M; and the reactions were carried out at 37° C. The results afforded an RIN of 1.10±0.08×10^−7 M/sec.

[5] = 70 kg person; cited from earlier work

Experimental for Q-less coq3 yeast: Wild-type, yeast Q-less coq3, or respiratory deficient con 1 null mutants were incubated in the presence of 200 μM of LA and D2-LA at different ratios of PUFAs. Serial dilutions (1:5) starting at 0.2 OD/ml were spotted on YPD solid plate medium. A zero-time untreated control is shown on the top left. Growth at 30° C.
Wild-type, yeast Q-less coq3, or respiratory deficient con 1 null mutants were incubated in the presence of 200 μM of ALA and D4-LA at different ratios of PUFAs. Serial dilutions (1:5) starting at 0.2 OD/ml were spotted on YPD solid plate medium. Growth at 30° C.
Wild-type, yeast Q-less coq3, or respiratory deficient cor1 null mutants were incubated in the presence of 200 μM of LA and D2-LA at different ratios of PUFAs, as indicated in FIG. 9. Serial dilutions (1:5) starting at 0.20D/ml were spotted on YPD solid plate medium. […] Growth was at 30° C.
The experimental protocol described for Example 14 was also reproduced in vivo using Q-less coq3 yeast strains (FIG. 10) and different ratios of ALA to D4-ALA. Wild-type, yeast Q-less coq3, or respiratory deficient cor1 null mutants were incubated in the presence of 200 μM of ALA and D4-Lnn (Linolenic acid) at different ratios of PUFAs, as indicated in FIG. 10. Serial dilutions (1:5) starting at 0.2 OD/ml were spotted on YPD solid plate medium. Growth was at 30° C.

SMILES: CCCCC/C=C\C/C=C\C/C=C\C/C=C\CCCC(=O)O [arachidonic acid]
- sensitivity of Q-less yeast to fatty acid treatment [1]: hypersensitive

SMILES: [2H]C([2H])(/C=C\CC)/C=C\C([2H])([2H])/C=C\CCCCCCCC(=O)O [D4-ALA, 11,11,14,14-Tetradeutero-cis,cis,cis-9,12,15-Octadecatrienoic acid]
- viability of coq null mutants after fatty acid treatment ([2]; listed as D4-linolenic acid): resistant to PUFA-mediated cell killing
- viability of cells by quantitative colony counting [2]: similar
- minimal amount of deuterated Lnn to cancel the toxicity of ALA (Q-less coq3 yeast; 200 μM total ALA and D4-Lnn at different ratios): 15-20%

SMILES: CCCCCCCC/C=C\CCCCCCCC(=O)O [oleic acid, reference compound]
- viability of cells by quantitative colony counting [2]: similar
- sensitivity of Q-less yeast to fatty acid treatment [1]: behave the same as the wild-type parental strain

SMILES: CCCCC/C=C\C/C=C\CCCCCCCC(=O)O [LA, cis,cis-9,12-Octadecadienoic acid, reference compound]
- length of the kinetic chain, ν=ROX/RIN [3]: 38±3
- rate of oxidation, ROX [3]: 6.1e-06 M/s
- rate of initiation, RIN ([3]; calculated from induction period, RIN=2·[HPMC]/tIND): around 0.16×10^−6 M/s
- calculated oxidizability ([3]; n=5): 0.0215±0.008 M^−0.5 s^−0.5

SMILES: CC/C=C\C/C=C\C/C=C\CCCCCCCC(=O)O [linolenic acid, cis,cis,cis-9,12,15-Octadecatrienoic acid]
- wild-type cells that remain viable (wild-type yeast (W303)): 70%
- viability of coq null mutants after fatty acid treatment [2]: dramatic loss of viability
- viable Q-less (coq2, coq3, and coq5) yeast mutants ([1]; four hour treatment): Less than 1%

SMILES: [2H]C(/C=C\CCCCC)/C=C\CCCCCCCC(=O)O (stereo not shown) [11,11-D,H-LA, [11-^2H]-linoleic acid]
- loss in cell viability (Q-less coq3 yeast; after 3 hours of treatment, data not shown): no detectable loss in cell viability

SMILES: [2H]C([2H])(/C=C\CCCCC)/C=C\CCCCCCCC(=O)O [D2-LA, 11,11-Dideutero-cis,cis-9,12-Octadecadienoic acid]
- length of the kinetic chain, ν=ROX/RIN [3]: ≈ 1.1
- rate of oxidation, ROX [3]: 1.8e-07 M/s
- effect of addition of HPMC on oxidation ([3]; data not shown): did not result in the decrease in ROX and the appearance of any detectable induction period
- estimated kinetic isotope effect (KIE) ([3]; from comparison of ROX for LA and D2-LA): ≈ 35
- levels of lipid peroxidation (Wild-type yeast cells): lower levels of lipid peroxidation similar to yeast not treated with PUFA
- effect in mixture with non-deuterated methyl linoleate ([4]; data not shown): qualititatively similar effect
- effect of D2-LA on autoxidation of non-deuterated LA ([4]; mixtures with LA): ‘protects’ the non-deuterated LA against autoxidation
- minimal amount of D2-LA to cancel the toxicity of LA (Q-less coq3 yeast; 200 μM total LA and D2-LA at different ratios): 10-15%

SMILES: [2H]C([2H])(/C=C\C/C=C\CC)C/C=C\CCCCCCC(=O)O [11, 11-D2-linolenic acid, 11,11-Dideutero-cis,cis,cis-octadeca-8,12,15-trienoic acid]
- viability of coq null mutants after fatty acid treatment [2]: comparable protection

SMILES: [2H]O[2H] [heavy water]
- amount that might be drunk without serious consequences [5]: 4.8 L

SMILES: [2H]C([2H])(/C=C\CC)/C=C\CC/C=C\CCCCCCC(=O)O [14, 14-D2-linolenic acid, 14,14-Dideutero-cis,cis,cis-octadeca-8,12,15-trienoic acid]
- viability of coq null mutants after fatty acid treatment [2]: comparable protection
